# Measured values taken from US20080171718A1, “Methods and Compositions for Treating Cancer Using BCL-2 Antisense Oligomers, Tyrosine Kinase Inhibitors, and Chemotherapeutic Agents” (priority 2006, published 2008).
# Entries after “also recorded” stand apart in the source; their conditions may differ.
# System: A549 human lung cancer model
# Assay: Tumor growth delay in A549 human lung cancer model in SCID mice
# Type: in vivo
# Conditions: for effect of the tyrosine kinase inhibitor in triplet therapy with Bcl-2 antisense and cytotoxic chemotherapeutic (comparison, interaction): A549 model, triplet with Genasense and Taxol/Abraxane
# Protocol: Genasense® (G3139 by Genta, Bcl-2 inhibitor, also referred to in the Figures as “OBL”), Abraxane® (by Abraxis, paclitaxel), and Taxol® (by Bristol Myers Squibb, paclitaxel) were submitted for evaluation in combination with tyrosine kinase inhibitors against an A549 human lung cancer model in severe combined immune deficient (SCID) mice. Ten treatment groups having 10 mice per group were analyzed for tumor growth delay. G3139, Abraxane, and Taxol were administered via intravenous (IV) injection, and tyrosine kinase inhibitors were administered via oral gavage (PO).
# The mice were injected with 100 μl tumor cells subcutaneously (SC). […] On the 15th day, treatment cycles of 5 days on and 2 days off began for a series of 3 cycles. During treatment, the mice were weighed twice daily. Tumor volume estimation (mm^3) was made in accordance with the formula (a^2×b/2), where “a” is the smallest diameter and “b” is the largest diameter. All procedures were completed in accordance with established animal care protocols.
# Subconfluent cells were harvested by using 0.23% trypsin-EDTA (HyClone, Logan, Utah) and were counted using the trypan blue assay technique. Cells (99% viability) were re-suspended at the concentration of 10×10^6 cells/100 μl of sterile saline.
# G3139 was prepared fresh each treatment day from a refrigerated stock solution of 30 mg/ml using sterile saline as the vehicle; while tyrosine kinase inhibitors in capsule form were brought up to the desired concentration using 10% DMSO and 90% sterile saline as the vehicle. Taxol (Infusion Solutions, Tucson, Az.) was prepared fresh each treatment day from a refrigerated stock solution of 6 mg/ml in Cremaphor EL/EtOH using sterile saline as the vehicle. Abraxane was prepared from a frozen stock of 5 mg/ml with the diluent of sterile saline. G3139 (20 mg/kg) was administered twice during each 5-day treatment cycle, on day 3 and on day 5. […] G3139 was administered at a volume of 0.1 ml using a 27 gauge needle (Becton Dickinson). Abraxane and Taxol were administered at a volume of 0.2 ml using a 27 gauge needle. […]
SMILES,"effect of the tyrosine kinase inhibitor in triplet therapy with Bcl-2 antisense and cytotoxic chemotherapeutic (comparison, interaction)","tumor growth / tumor growth inhibition compared to the negative control (tumor volume versus days post implantation) (FIG. 1-3, single agent, SC A549 tumors, 3 cycles of 5 days on/2 days off from day 15, Taxol/Abraxane 13.4 mg/kg IV day 1, Gleevec 100 mg/kg, Sutent/Nexavar 40 mg/kg PO daily)"
"CNC(=O)c1cc(Oc2ccc(NC(=O)Nc3ccc(Cl)c(C(F)(F)F)c3)cc2)ccn1 [Nexavar, sorafenib]",comparable to Sutent in the triplet therapy and more effective than Gleevec; also recorded: unexpectedly enhanced interaction,minor and substantially similar tumor growth inhibition
"C#Cc1cccc(Nc2ncnc3cc(OCCOC)c(OCCOC)cc23)c1 [Tarceva, erlotinib]",does not significantly enhance the efficacy,
